Experimental data published in patent US9513294B2, “Megastokes amino-triazolyl-BODIPY compounds and applications to live neuron staining and human serum albumin FA1 drug site probing” (National University of Singapore, priority 2012, dated 2016).
Each block holds one compound with its values, some of them ahead of it.

Tests used:
[1] = Quantum yield measurements versus Acridine Yellow in EtOH; type: physicochemical; conditions: for φ (quantum yield): excitation 460 nm; for φ (%): quantum yield
Procedure: (§1) ^1H-NMR, ^19F-NMR and ^13C-NMR spectra were recorded on Bruker ACF300 (300 MHz), DPX300 (300 MHz) and AMX500 (500 MHz) spectrometers. High resolution mass spectra (ESI) were obtained on a Finnigan/MAT 95XL-T spectrometer. Spectroscopic and quantum yield data were measured on a SpectraMax M2 spectrophotometer (Molecular Devices). Data analysis was performed using GraphPrism 5.0. Analytical characterization was performed on a HPLC-MS (Agilent-1200 series) with a DAD detector and a single quadrupole mass spectrometer (6130 series) with an ESI probe. Analytical HPLC method: eluents, A: H2O (0.1% HCOOH), B: CH3CN (0.1% HCOOH), gradient 5% B to 95% B (10 min). Reverse-phase Phenomenex C18 Luna column (4.6×50 mm^2, 3.5 […]), flow rate: 1 mL/min.
Quantum yields were calculated by measuring the integrated emission area of the fluorescent spectra and comparing to the area measured for Acridine Yellow in EtOH when excited at 460 nm (Φfluorescence^AcridineYellow=0.47). Quantum yields for the amino-triazolyl-BODIPYs were calculated using the equation below, where F represents the area of fluorescent emission, η is the refractive index of the solvent, and Abs is absorbance at the excitation wavelength selected for standards and samples. Emission was integrated between 510 and 700 nm.

[2] = Absorbance and fluorescence emission spectra (SpectraMax M2); type: physicochemical; conditions: for λmax Absorp. (nm) / λmax Emission (nm): MKCA compound library; for λmax Absorp. (nm) / λmax Abs. (nm): absorbance maximum; for λmax Emission (nm) / λmax Em. (nm): fluorescence emission maximum; for λmax Abs. (nm) / λmax Em. (nm): MKAC compound library
Procedure: BDC-8 (Blue): absorbance λmax=473 nm, emission λmax=585 nm; MK101-8 (Green): absorbance λmax=474 nm, emission λmax=563 nm; MKHA374-48 (Yellow): absorbance λmax=468 nm, λem=557 nm. The corresponding spectra of a reported BODIPY (BD-27; Red) are also included for comparison: absorbance λmax=551 nm, emission λmax=568 nm. The structures of BDC-8, MK101-8, MKHA374-48 and BD-27 are also depicted.
as §1

φ (%) ([1]; MKCA compound library): 21.65%
λmax Absorp. (nm) [2]: 462 nm
λmax Emission (nm) [2]: 563 nm
SMILES: COc1ccc(OC)c(CNC2=[N+]3C(=C(c4ccc(NC(=O)CCl)cc4)c4ccc(-n5cc(CN(C)Cc6ccccc6)nn5)n4[B-]3(F)F)C=C2)c1 [MKCA181-18]

φ (quantum yield) ([1]; MK library, Table 5): 0.85%
λmax Absorp. ([2]; MK library, Table 5): 474 nm
λmax Emission ([2]; MK library, Table 5): 564 nm
SMILES: COc1ccc(OC)c(CNC2=[N+]3C(=C(c4ccc(N)cc4)c4ccc(-n5cc(CCc6ccccc6)nn5)n4[B-]3(F)F)C=C2)c1 [MK181-19]

φ (quantum yield) ([1]; MK library, Table 5): 1.93%
λmax Absorp. ([2]; MK library, Table 5): 472 nm
λmax Emission ([2]; MK library, Table 5): 562 nm
SMILES: CCOc1ccccc1CNC1=[N+]2C(=C(c3ccc(N)cc3)c3ccc(-n4cc(CO)nn4)n3[B-]2(F)F)C=C1 [MK103-70]

φ (%) ([1]; MKAC compound library): 3.12%
λmax Abs. (nm) [2]: 467 nm
λmax Em. (nm) [2]: 579 nm
SMILES: CC(=O)Nc1ccc(C2=C3C=CC(N4CC(C)OC(C)C4)=[N+]3[B-](F)(F)n3c2ccc3-n2cc(CCc3ccccc3)nn2)cc1 (stereo not drawn) [MKAC20-19]

φ (%) ([1]; MKAC compound library): 18.28%
λmax Abs. (nm) [2]: 464 nm
λmax Em. (nm) [2]: 561 nm
SMILES: COc1ccc(OC)c(CNC2=[N+]3C(=C(c4ccc(NC(C)=O)cc4)c4ccc(-n5cc(CN(C)Cc6ccccc6)nn5)n4[B-]3(F)F)C=C2)c1 [MKAC181-18]

φ (quantum yield) ([1]; BDCCA library, Table 4): 0.7%
λmax Absorp. ([2]; BDCCA library, Table 4): 465 nm
λmax Emission ([2]; BDCCA library, Table 4): 587 nm
SMILES: CN(Cc1ccccc1)Cc1cn(-c2ccc3n2[B-](F)(F)[N+]2=C(N4CCCCC4)C=CC2=C3c2ccc(NC(=O)CCl)cc2)nn1 [BDCCA-18]

φ (quantum yield) ([1]; MK library, Table 5): 1.96%
λmax Absorp. ([2]; MK library, Table 5): 472 nm
λmax Emission ([2]; MK library, Table 5): 568 nm
SMILES: CCOc1ccccc1CNC1=[N+]2C(=C(c3ccc(N)cc3)c3ccc(-n4cc(CCc5ccccc5)nn4)n3[B-]2(F)F)C=C1 [MK103-19]

φ (%) ([1]; MKAC compound library): 20.91%
λmax Abs. (nm) [2]: 465 nm
λmax Em. (nm) [2]: 561 nm
SMILES: CCCCCC(O)c1cn(-c2ccc3n2[B-](F)(F)[N+]2=C(NCc4ccccc4OCC)C=CC2=C3c2ccc(NC(C)=O)cc2)nn1 (stereo not drawn) [MKAC103-69]

φ (%) ([1]; MKAC compound library): 3.96%
λmax Abs. (nm) [2]: 461 nm
λmax Em. (nm) [2]: 561 nm
SMILES: CC(=O)Nc1ccc(C2=C3C=CC(NCc4cc(F)cc(F)c4)=[N+]3[B-](F)(F)n3c2ccc3-n2cc(CO)nn2)cc1 [MKAC412-70]

Second part, the compound before the results:

SMILES: CC1CN(C2=[N+]3C(=C(c4ccc(N)cc4)c4ccc(-n5cc(CN(C)Cc6ccccc6)nn5)n4[B-]3(F)F)C=C2)CC(C)O1 (stereo not drawn) [MK20-18]
φ (quantum yield) ([1]; MK library, Table 5): 0.23%
λmax Absorp. ([2]; MK library, Table 5): 477 nm
λmax Emission ([2]; MK library, Table 5): 582 nm

SMILES: CCCCc1ccc(-c2cn(-c3ccc4n3[B-](F)(F)[N+]3=C(N5CCCCC5)C=CC3=C4c3ccc(NC(=O)CCl)cc3)nn2)cc1 [BDCCA-12]
φ (quantum yield) ([1]; BDCCA library, Table 4): 1.6%
λmax Absorp. ([2]; BDCCA library, Table 4): 464 nm
λmax Emission ([2]; BDCCA library, Table 4): 552 nm

SMILES: Cc1ccc(-c2cn(-c3ccc4n3[B-](F)(F)[N+]3=C(N5CCCCC5)C=CC3=C4c3ccc(NC(=O)CCl)cc3)nn2)cc1 [BDCCA-10]
φ (quantum yield) ([1]; BDCCA library, Table 4): 2.9%
λmax Absorp. ([2]; BDCCA library, Table 4): 463 nm
λmax Emission ([2]; BDCCA library, Table 4): 558 nm

SMILES: O=C(CCl)Nc1ccc(C2=C3C=CC(N4CCCCC4)=[N+]3[B-](F)(F)n3c2ccc3-n2cc(C3CCCCC3)nn2)cc1 [BDCCA-6]
φ (quantum yield) ([1]; BDCCA library, Table 4): 2.3%
λmax Absorp. ([2]; BDCCA library, Table 4): 467 nm
λmax Emission ([2]; BDCCA library, Table 4): 555 nm

SMILES: O=C(CCl)Nc1ccc(C2=C3C=CC(N4CCCCC4)=[N+]3[B-](F)(F)n3c2ccc3-n2cc(-c3ccc(OC(F)(F)F)cc3)nn2)cc1 [BDCCA-15]
φ (quantum yield) ([1]; BDCCA library, Table 4): 2.2%
λmax Absorp. ([2]; BDCCA library, Table 4): 462 nm
λmax Emission ([2]; BDCCA library, Table 4): 537 nm

SMILES: CC(C)Cc1cn(-c2ccc3n2[B-](F)(F)[N+]2=C(N4CCCCC4)C=CC2=C3c2ccc(N)cc2)nn1 [BDC-43]
φ (quantum yield) ([1]; BDC library, Table 2): 0.10%
λmax Absorp. ([2]; BDC library, Table 2): 476 nm
λmax Emission ([2]; BDC library, Table 2): 589 nm

SMILES: CCOc1ccccc1CNC1=[N+]2C(=C(c3ccc(NC(=O)CCl)cc3)c3ccc(-n4cc(C5CCCC5)nn4)n3[B-]2(F)F)C=C1 [MKCA103-5]
φ (%) ([1]; MKCA compound library): 33.46%
λmax Absorp. (nm) [2]: 464 nm
λmax Emission (nm) [2]: 563 nm

SMILES: CCCCCC(O)c1cn(-c2ccc3n2[B-](F)(F)[N+]2=C(NCc4cc(F)cc(F)c4)C=CC2=C3c2ccc(N)cc2)nn1 (stereo not drawn) [MK412-69]
φ (quantum yield) ([1]; MK library, Table 5): 1.98%
λmax Absorp. ([2]; MK library, Table 5): 476 nm
λmax Emission ([2]; MK library, Table 5): 563 nm

SMILES: Nc1ccc(C2=C3C=CC(N4CCCCC4)=[N+]3[B-](F)(F)n3c2ccc3-n2cc(C3=CCCCC3)nn2)cc1 [BDC-37]
φ (quantum yield) ([1]; BDC library, Table 2): 0.12%
λmax Absorp. ([2]; BDC library, Table 2): 474 nm
λmax Emission ([2]; BDC library, Table 2): 579 nm
